Assay results from patent US9545367B2, “Cosmetic use of N-heteroarylbisamide analogs and related compounds” (Avon Products, Inc., priority 2011, dated 2017).

Tests used:
Format in all cases: cell-based, human
explanted skin tissue = experiment: Skin explant assay, hematoxylin and eosin histology; settings: skin explants, 0.025 weight percent, administered days 0, 1, 2, 5, 7; nine days in culture; vs vehicle control; FIG. 1B
Protocol: (§1) Samples of explanted skin tissue were obtained from an abdominal plasty of a person. Samples (33 samples in total) were maintained in tissue culture medium at 37° C. in a humid, 5%-CO2 atmosphere for the duration of the study.
(§2) The skin tissue explants were then distributed into appropriate controls or treated samples in triplicates. The controls received only a vehicle, and the treatment samples received 0.025 weight percent of Analog A disclosed above. The vehicle and Analog A were administered to the controls and treatment samples, respectively, on days 0, 1, 2, 5, and 7.
(§3) After nine days in culture the vehicle and Analog A treated samples were collected and processed for histology and immunostaining Initially, the samples were fixed in buffered formalin for 24 hours. […] Tissue samples were also stained for procollagen I using a Procollagen I rat monoclonal antibody with streptavidin alkaline phosphatase conjugate (Vectastain, Vector labs) and Vector® blue substrate detection system (Vector Laboratories LTD., Peterborough, UK), and hyaluronic acid using biotinylated affinity purified Hyaluronic Acid Binding Protein ((bovine nasal cartilage) Calbiochem, EMD Chemicals USA) and detected using the aforementioned detection system […]

Hyaluronic Acid = experiment: Skin explant assay, Hyaluronic Acid Binding Protein staining; settings: skin explants, 0.025 weight percent, nine days in culture; FIGS. 2A and 2B
Protocol: as §1, §2, §3

Procollagen 1 = experiment: Skin explant assay, procollagen I immunostaining; settings: skin explants, 0.025 weight percent, nine days in culture; FIGS. 3A and 3B
Protocol: as §1, §2, §3

Cc1cccc(-n2nc(C(C)(C)C)cc2NC(=O)CCCC(=O)NC(C)C(C)C)c1 (stereo not shown) [Analog A]
cell density throughout the basal epidermis (hematoxylin and eosin stain) (explanted skin tissue): maintained their cell density throughout the basal epidermis | contact with the basal layer (hematoxylin and eosin stain) (explanted skin tissue): good contact with the basal layer | expression of Hyaluronic Acid in comparison to the vehicle control (Hyaluronic Acid): increased | expression of Procollagen 1 in comparison to the vehicle control (Procollagen 1): increased
